Experimental data reported in patent US11246876B2, “Anti-cancer effects of JAK2 inhibitors in combination with thalidomide derivatives and glucocorticoids” (OncoTracker, Inc., priority 2014, dated 2022).

Assays:
[1] = test system: LAGκ-2 tumors; assay: LAGκ-2 human multiple myeloma xenograft in SCID mice; type: in vivo; settings: dosing as for LAGκ-1A (dexamethasone 1.5 mg/kg for LAGκ-2)
Protocol: (§1) The combination of the JAK2 inhibitor ruxolitinib with lenalidomide and dexamethasone was tested on human multiple myeloma tumors in vivo. The anti-multiple myeloma effects of ruxolitinib were evaluated with mice bearing either LAGκ-1A (bortezomib- and melphalan-sensitive) or LAGκ-2 (bortezomib- and melphalan-resistant) tumors, both of which were originally derived from bone marrow biopsies from multiple myeloma patients. These tumors closely resemble human multiple myeloma and have been passaged through multiple generations of mice with consistent growth and chemoresistance patterns.
In another experiment, mice received an intramuscular implantation of LAGκ-2 tumor tissue, and then underwent treatment with vehicle control, ruxolitinib, dexamethasone, lenalidomide, ruxolitinib and dexamethasone, ruxolitinib and lenalidomide, dexamethasone and lenalidomide, or ruxolitinib with lenalidomide and dexamethasone, as described above (see FIG. 8B). Similar to the effects on LAGκ-1A tumors, when ruxolitinib, lenalidomide, or dexamethasone was administered individually, LAGκ-2 tumor growth was not inhibited compared to control.
(§2) Six- to 8-week-old male severe combined immunodeficient (SCID) mice were obtained from the Jackson Laboratory (Bar Harbor, Me., USA) and maintained in a specific pathogen-free area in our animal resources facility. Human myeloma tumors (LAGκ-1A or LAGκ-2) which have been maintained in our laboratory for many years were excised from an anaesthetized tumor containing donor mouse, sectioned into 20-40 mm3 pieces, and surgically implanted into the left superficial gluteal muscle of the anaesthetized naive SCID mice. Recipient mice received weekly injections of anti-asialo GM1 rabbit serum (Wako Bioproducts, Richmond, Va., USA) to further suppress immune activity and allow growth of the human tumor. All animal studies were conducted according to protocols approved by the Institutional Animal Care and Use Committee. Animals were anaesthetized with ketamine, xylazine, and isoflurane prior to surgery and were euthanized when tumors reached 2 cm in diameter. […]

[2] = test system: LAGκ-1A tumors; assay: LAGκ-1A human multiple myeloma xenograft in SCID mice; type: in vivo; settings: ruxolitinib 1.5 mg/kg i.p. twice daily, dexamethasone 1 mg/kg i.p. once daily, lenalidomide 15 mg/kg oral gavage once daily
Protocol: as §1
Following intramuscular implantation of LAGκ-1A tumor tissue, mice underwent treatment with vehicle control, ruxolitinib, dexamethasone, lenalidomide, ruxolitinib and dexamethasone, ruxolitinib and lenalidomide, dexamethasone and lenalidomide, or ruxolitinib with lenalidomide and dexamethasone (see FIG. 8A). Ruxolitinib was administered via injection at 1.5 mg/kg i.p., twice daily; dexamethasone was administered at 1 mg/kg i.p., once daily, and lenalidomide was administered via oral gavage at 15 mg/kg, once daily. When ruxolitinib, lenalidomide, or dexamethasone was administered individually, LAGκ-1A tumor growth was not inhibited compared to control.
as §2, with “Committee.” for “Committee. Animals were anaesthetized with ketamine, xylazine, and isoflurane prior to surgery and were euthanized when tumors reached 2 cm in diameter.”

| SMILES | LAGκ-2 tumor growth compared to control [1] | LAGκ-1A tumor growth compared to control [2] |
| --- | --- | --- |
| N#CC[C@H](C1CCCC1)n1cc(-c2ncnc3[nH]ccc23)cn1 [ruxolitinib] | not inhibited | not inhibited |
| Nc1cccc2c1CN(C1CCC(=O)NC1=O)C2=O (stereo not drawn) [lenalidomide] | not inhibited | not inhibited |
| C[C@@H]1C[C@H]2[C@@H]3CCC4=CC(=O)C=C[C@]4(C)[C@@]3(F)[C@@H](O)C[C@]2(C)[C@@]1(O)C(=O)CO [dexamethasone] | not inhibited | not inhibited |
